{"source": "patent US20190008797A1", "about": "“ESTROGEN RECEPTOR ALPHA COLIGANDS, AND METHODS OF USE THEREOF” (priority 2016, published 2019)", "key": {"[1]": {"target": "purified ERα (Homo sapiens, UniProt P03372)", "sequence (P03372 whole entry)": "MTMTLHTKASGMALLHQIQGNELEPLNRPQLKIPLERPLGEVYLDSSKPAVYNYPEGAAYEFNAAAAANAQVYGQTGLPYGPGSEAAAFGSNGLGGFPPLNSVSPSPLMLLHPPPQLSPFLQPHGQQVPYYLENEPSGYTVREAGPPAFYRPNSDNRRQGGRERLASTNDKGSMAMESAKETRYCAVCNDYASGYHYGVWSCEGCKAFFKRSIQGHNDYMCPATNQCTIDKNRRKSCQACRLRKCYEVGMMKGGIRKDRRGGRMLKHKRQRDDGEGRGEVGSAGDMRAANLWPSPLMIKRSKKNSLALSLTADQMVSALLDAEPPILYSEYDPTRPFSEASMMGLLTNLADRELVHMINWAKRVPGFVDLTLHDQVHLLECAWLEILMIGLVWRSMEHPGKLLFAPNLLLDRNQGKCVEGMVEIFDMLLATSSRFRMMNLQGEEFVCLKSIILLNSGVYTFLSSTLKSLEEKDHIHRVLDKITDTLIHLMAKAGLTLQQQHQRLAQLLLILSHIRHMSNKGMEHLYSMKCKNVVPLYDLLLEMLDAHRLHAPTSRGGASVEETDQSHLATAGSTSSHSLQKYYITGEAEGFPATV", "test": "Fluorescent polarization with purified ERα", "assay_type": "binding"}, "[2]": {"system": "U2OS-ERα cells", "test": "KRT19 mRNA real-time PCR in U2OS-ERα cells", "assay_type": "cell-based, human", "experimental": "(FIG. 1a) Chemical structure of 2′, 3′, 4′-THC. (FIG. 1b) U2OS cells cotransfected with ERE tk-luciferase and ERα (left panel) or ERβ (right panel). After transfection the cells were treated for 24 hours with 10 nM estradiol and 5 μM 2′, 3′, 4′-THC alone or in combination. Cells were lysed and luciferase activity was measured. RLU is relative light units. Error bars are the Mean±SEM. **P≤0.01. […] The total cellular RNA was extracted and real-time PCR for KRT19 mRNA was performed as described in Materials and Methods. […] Error bars are ±SEM. *P≤0.05, **** P≤0.0001.\nFIGS. 3a-3d. […] Error bars are ±SEM."}, "[3]": {"target": "T1, ERβ (Homo sapiens, UniProt Q92731)", "T1 construct": "expressed in transfected cells; host or cells: U2OS", "T1 sequence (Q92731 whole entry)": "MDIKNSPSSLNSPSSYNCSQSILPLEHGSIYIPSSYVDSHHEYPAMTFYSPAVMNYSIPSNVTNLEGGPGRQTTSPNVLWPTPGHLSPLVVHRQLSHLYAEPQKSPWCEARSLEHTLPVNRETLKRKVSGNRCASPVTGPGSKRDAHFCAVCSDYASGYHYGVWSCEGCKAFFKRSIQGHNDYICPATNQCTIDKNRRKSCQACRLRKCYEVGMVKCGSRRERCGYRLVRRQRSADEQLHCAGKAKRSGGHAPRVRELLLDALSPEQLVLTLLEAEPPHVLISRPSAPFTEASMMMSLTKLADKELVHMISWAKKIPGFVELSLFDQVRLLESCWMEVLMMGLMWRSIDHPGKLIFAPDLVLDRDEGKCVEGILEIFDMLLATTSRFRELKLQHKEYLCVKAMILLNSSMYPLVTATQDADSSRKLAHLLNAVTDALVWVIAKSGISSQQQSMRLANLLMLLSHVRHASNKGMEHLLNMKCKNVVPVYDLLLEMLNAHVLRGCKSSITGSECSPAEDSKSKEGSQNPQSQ", "test": "ERE-tk luciferase transfection assay, U2OS cells cotransfected with ERβ", "assay_type": "cell-based"}, "[4]": {"system": "MCF-7 cells", "test": "KRT19 mRNA RT-QPCR in MCF-7 cells", "conditions": "5 μM + 10 nM E2, 4 hours"}, "[5]": {"system": "c-MYC", "test": "c-MYC mRNA (real-time PCR) and protein (Western blot) in MCF-7 cells", "conditions": "greater than tamoxifen"}, "[6]": {"target": "T2, hPR-B (Homo sapiens, UniProt P06401)", "T2 construct": "expressed in transfected cells; host or cells: U2OS", "T2 sequence (P06401 1-933)": "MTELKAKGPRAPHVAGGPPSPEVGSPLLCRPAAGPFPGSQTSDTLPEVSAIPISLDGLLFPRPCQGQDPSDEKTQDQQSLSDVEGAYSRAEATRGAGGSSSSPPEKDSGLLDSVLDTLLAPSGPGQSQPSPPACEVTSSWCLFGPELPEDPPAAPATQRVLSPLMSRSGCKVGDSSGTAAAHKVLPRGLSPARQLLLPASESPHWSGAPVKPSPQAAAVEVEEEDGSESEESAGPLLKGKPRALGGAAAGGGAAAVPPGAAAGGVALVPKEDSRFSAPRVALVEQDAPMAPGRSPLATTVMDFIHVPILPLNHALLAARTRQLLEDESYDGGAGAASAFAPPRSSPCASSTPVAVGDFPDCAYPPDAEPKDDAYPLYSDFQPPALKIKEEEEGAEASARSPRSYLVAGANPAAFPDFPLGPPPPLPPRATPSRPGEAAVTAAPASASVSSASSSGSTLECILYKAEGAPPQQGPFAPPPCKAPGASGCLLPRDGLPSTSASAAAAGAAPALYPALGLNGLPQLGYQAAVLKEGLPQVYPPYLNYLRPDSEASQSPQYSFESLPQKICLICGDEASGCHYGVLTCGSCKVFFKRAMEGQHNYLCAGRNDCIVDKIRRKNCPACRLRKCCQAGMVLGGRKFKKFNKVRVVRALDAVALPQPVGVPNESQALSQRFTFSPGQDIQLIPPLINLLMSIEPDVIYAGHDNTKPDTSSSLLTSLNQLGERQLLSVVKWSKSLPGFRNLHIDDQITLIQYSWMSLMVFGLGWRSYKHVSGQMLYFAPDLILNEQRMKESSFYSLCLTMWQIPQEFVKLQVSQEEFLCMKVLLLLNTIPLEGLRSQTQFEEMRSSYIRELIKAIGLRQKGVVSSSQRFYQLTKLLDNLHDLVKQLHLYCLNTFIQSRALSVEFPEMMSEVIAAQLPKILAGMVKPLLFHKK", "test": "TAT3-luciferase reporter, U2OS cells cotransfected with hPR-B", "assay_type": "cell-based", "conditions": "5 μM + 10 nM progesterone, 24 hours"}, "[7]": {"target": "ERα (Homo sapiens, UniProt P03372)", "sequence (P03372 whole entry)": "as the sequence (P03372 whole entry) above", "test": "Competitive [3H]-E2 binding in U2OS-ERα cells", "design": "expressed in transfected cells; host or cells: U2OS"}, "[8]": {"system": "MCF-7 cells", "test": "ERE-TK-Luc transfection assay in MCF-7 cells", "conditions": "1, 5 or 10 μM + 10 nM E2"}, "[9]": {"target": "T3, ERα LBD (Homo sapiens, UniProt P03372)", "T3 construct": "Purified ERα LBD containing amino acids 315-545 used by Brzozowski et al; histidine-tag; purchased GenScript", "T3 sequence (P03372 315-545)": "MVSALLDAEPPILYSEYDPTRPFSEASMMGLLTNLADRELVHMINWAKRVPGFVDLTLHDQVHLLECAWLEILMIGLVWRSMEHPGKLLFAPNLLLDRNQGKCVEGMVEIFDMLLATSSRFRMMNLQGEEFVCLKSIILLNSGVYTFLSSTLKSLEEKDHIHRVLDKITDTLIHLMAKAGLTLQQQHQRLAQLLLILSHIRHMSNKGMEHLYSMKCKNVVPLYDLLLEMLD", "assay_type": "binding", "conditions": "5 μM 2′,3′,4′-THC alone"}}, "data": [{"smiles": "O=C(/C=C/c1ccccc1)c1ccc(O)c(O)c1O", "note": "[2′, 3′, 4′-THC, 2′, 3′, 4′-trihydroxychalcone]", "values": [{"measurement": "IC50 relative to E2 (higher)", "setting": "[1]", "result": "approximately 10,000 fold"}, {"measurement": "KRT19 gene expression, compound alone", "setting": "[2]; 10 nM E2, 5 μM 2′,3′,4′-THC, 1 μM tamoxifen or raloxifene, 24 hours", "result": "no effect"}, {"measurement": "activation of the KRT19 gene in the presence of E2", "setting": "[2]; 1 and 5 μM 2′,3′,4′-THC, 24 h", "result": "synergistic activation"}, {"measurement": "effect on E2-induced KRT19 expression", "setting": "[2]; in combination with 10 nM E2, 24 hours", "result": "synergistic activation"}, {"measurement": "luciferase activity with E2", "setting": "[3]; ERβ, 5 μM + 10 nM E2, 24 hours", "result": "synergistic increase"}, {"measurement": "activity on ERE luciferase, compound alone", "setting": "[3]; U2OS cells transfected with ERβ, 5 μM, 24 hours", "result": "inactive"}, {"measurement": "effect on E2 activation of the KRT19 gene", "setting": "[4]", "result": "did not have a significant effect"}, {"measurement": "effect on E2-stimulation of c-MYC mRNA", "setting": "[5]; 5 μM + 10 nM E2, 4 hours", "result": "inhibited"}, {"measurement": "effect on E2-stimulation of c-MYC protein levels", "setting": "[5]; increasing doses + 10 nM E2, 1 hour", "result": "inhibited"}, {"measurement": "synergy with receptor agonist", "setting": "[6]", "result": "no synergy"}, {"measurement": "competing concentration relative to concentration required for synergy", "setting": "[7]", "result": 100, "unit": "fold"}, {"measurement": "increase of [3H]-E2 binding", "setting": "[7]; 5 or 10 μM, 5 nM [3H]-E2, 1 h, 37°C", "result": "~2", "unit": "fold"}, {"measurement": "IC50 relative to E2 (higher)", "setting": "[7]; U2OS-ERα cells", "result": "approximately 10,000 fold"}, {"measurement": "concentration at which the compound competes for [3H]-E2 binding", "setting": "[7]; no competition below, 5 nM [3H]-E2", "result": 100, "unit": "µM"}, {"measurement": "E2 activation of ERE-TK-Luc", "setting": "[8]", "result": "dose-dependent synergistic increase"}, {"measurement": "melting temperature of ERα LBD", "setting": "[9]", "result": "no effect"}]}]}
